# Where “and” joins values, the source holds several entries; their conditions need not be identical. Identical values can stand only once.
# Key:
# HDAC1 = target: T1, HDAC1 (Homo sapiens, UniProt Q13547); test: In vitro HDAC profiling (deacetylation assay), HDAC1; type: biochemical; conditions: for HDAC Activity (Fluorescent counts): Repeat1/Repeat 2
# T1 construct: purchased BPS Bioscience #50051-11
# Experimental: (§1) HDAC profiling was performed at BPS Bioscience (San Diego, CA). All of the compounds are dissolved in DMSO. A series of dilutions of the compounds were prepared with 10% DMSO in HDAC assay buffer (#50031) and 5 µl of the dilution was added to a 50 µl reaction so that the final concentration of DMSO is 1% in all of reactions. All of the enzymatic reactions were conducted in duplicate at 37 °C for 30 mins, except that the enzyme reactions for HDAC11 were at room temperature for 3 hrs. All of the reactions were performed in a 50 µl mixture containing HDAC assay buffer, 5 µg BSA, an HDAC substrate [HDAC Substrate 3 (BPS number 50037) or HDAC Class 2a Substrate 1 (BPS number 50040)], an HDAC enzyme (#50051-11) and a test compound. After enzymatic reactions, 50 μl of HDAC Developer (#50030) was added to each well and the plate was incubated at room temperature for an additional 20 mins. Fluorescence intensity was measured at an excitation of 360 nm and an emission of 460 nm using a Tecan Infinite M1000 microplate reader. HDAC activity assays were performed in duplicates at each concentration. The fluorescent intensity data were analyzed using the computer software, Graphpad Prism. In the absence of the compound, the fluorescent intensity (Ft) in each data set was defined as 100% activity. In the absence of HDAC, the fluorescent intensity (Fb) in each data set was defined as 0% activity. The percent activity in the presence of each compound was calculated according to the following equation: %activity = (F − Fb)/(Ft − Fb), where F = the fluorescent intensity in the presence of the compound. The values of % activity versus a series of compound concentrations were then plotted using non-linear regression analysis of Sigmoidal dose-response curve generated with the equation Y = B + (T − B)/1 + 10((LogIC50 − X) × Hill Slope), where Y = percent activity, B = minimum percent activity, T = maximum percent activity, X = logarithm of compound and Hill Slope = slope factor or Hill coefficient. The IC50 value was determined by the concentration causing a half-maximal percent activity.
# HDAC3/NCOR2 = target: T2, HDAC3/NCOR2 (Homo sapiens, UniProt O15379); test: In vitro HDAC profiling (deacetylation assay), HDAC3; type: biochemical; conditions: for HDAC Activity (Fluorescent counts): Repeat1/Repeat 2
# T2 construct: purchased BPS Bioscience #50051-11
# Experimental: as §1
# HDAC7 = target: T3, HDAC7 (Homo sapiens, UniProt Q8WUI4); test: In vitro HDAC profiling (deacetylation assay), HDAC7; type: biochemical; conditions: for HDAC Activity (Fluorescent counts): Repeat1/Repeat 2
# T3 construct: purchased BPS Bioscience #50051-11
# T3 sequence (Q8WUI4 1-952): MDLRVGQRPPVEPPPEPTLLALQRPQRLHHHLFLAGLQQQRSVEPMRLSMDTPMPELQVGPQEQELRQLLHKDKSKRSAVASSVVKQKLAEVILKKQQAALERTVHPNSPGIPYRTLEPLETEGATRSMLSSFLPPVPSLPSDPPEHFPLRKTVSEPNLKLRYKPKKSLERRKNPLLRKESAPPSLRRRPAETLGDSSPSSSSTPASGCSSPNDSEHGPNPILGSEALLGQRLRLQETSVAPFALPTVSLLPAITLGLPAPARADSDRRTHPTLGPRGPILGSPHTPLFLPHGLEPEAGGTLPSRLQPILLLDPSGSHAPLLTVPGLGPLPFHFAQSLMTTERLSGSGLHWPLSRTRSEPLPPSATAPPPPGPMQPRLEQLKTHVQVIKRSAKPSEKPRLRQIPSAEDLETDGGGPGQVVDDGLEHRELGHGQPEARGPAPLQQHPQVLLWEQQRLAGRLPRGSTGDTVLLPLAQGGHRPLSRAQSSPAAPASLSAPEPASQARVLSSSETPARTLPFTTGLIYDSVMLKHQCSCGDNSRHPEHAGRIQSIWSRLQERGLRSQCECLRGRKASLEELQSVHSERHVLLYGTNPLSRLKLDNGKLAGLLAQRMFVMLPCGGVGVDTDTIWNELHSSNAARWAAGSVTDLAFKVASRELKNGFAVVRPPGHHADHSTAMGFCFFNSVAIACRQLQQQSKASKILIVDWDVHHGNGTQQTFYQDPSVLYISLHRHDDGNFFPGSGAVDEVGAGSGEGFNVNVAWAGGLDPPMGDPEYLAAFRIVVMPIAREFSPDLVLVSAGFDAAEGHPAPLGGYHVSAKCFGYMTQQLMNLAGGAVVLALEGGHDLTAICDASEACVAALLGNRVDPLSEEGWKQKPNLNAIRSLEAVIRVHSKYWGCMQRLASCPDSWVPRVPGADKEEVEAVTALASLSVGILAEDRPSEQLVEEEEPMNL
# Experimental: as §1
# [1] = tested on: SMO-M2 in NIH3T3 (GLI-BS reporter); test: GLI-BS reporter assay, NIH3T3 cells with SMO-M2 DNA; type: cell-based; conditions: Mus musculus
# Experimental: The HH-responsive firefly luciferase reporter (GLI-BS) and a control Renilla luciferase reporter (SV40-RL) were transfected into indicated cell lines using Effectene (Qiagen) either alone or with indicated DNAs. 24 hrs after transfection, cells were switched to low serum media (3% calf serum), and grown for another 48 hrs. in 5% CO2 in the presence/absence of compounds. 3T3-ShhFL cell line that stably expressing SHH and the two reporters were cultured in a similar fashion. FL and RL activities in lysate generated using Passive Lysis Buffer (Promega) were then assessed using the Dual-Luciferase kit (Promega) and a 96-well plate reading luminometer (BMG). The ratio of FL/RL was calculated and the averaged ratios from three replicates were reported.
# [2] = in vitro deacetylation assay, duplicates
# T1 sequence (Q13547 whole entry): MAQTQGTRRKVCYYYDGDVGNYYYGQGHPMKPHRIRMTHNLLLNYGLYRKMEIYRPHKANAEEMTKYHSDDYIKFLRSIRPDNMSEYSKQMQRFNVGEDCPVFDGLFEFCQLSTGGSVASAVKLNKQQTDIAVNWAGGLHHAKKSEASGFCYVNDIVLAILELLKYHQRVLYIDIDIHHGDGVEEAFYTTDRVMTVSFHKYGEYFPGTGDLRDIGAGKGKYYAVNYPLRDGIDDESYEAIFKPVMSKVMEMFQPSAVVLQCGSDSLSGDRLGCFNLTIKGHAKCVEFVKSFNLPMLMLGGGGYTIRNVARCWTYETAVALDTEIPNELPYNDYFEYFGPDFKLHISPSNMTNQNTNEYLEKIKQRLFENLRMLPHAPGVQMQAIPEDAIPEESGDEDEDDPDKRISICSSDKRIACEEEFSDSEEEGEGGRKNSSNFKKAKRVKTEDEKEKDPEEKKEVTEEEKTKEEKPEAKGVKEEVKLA
# T2 sequence (O15379 whole entry): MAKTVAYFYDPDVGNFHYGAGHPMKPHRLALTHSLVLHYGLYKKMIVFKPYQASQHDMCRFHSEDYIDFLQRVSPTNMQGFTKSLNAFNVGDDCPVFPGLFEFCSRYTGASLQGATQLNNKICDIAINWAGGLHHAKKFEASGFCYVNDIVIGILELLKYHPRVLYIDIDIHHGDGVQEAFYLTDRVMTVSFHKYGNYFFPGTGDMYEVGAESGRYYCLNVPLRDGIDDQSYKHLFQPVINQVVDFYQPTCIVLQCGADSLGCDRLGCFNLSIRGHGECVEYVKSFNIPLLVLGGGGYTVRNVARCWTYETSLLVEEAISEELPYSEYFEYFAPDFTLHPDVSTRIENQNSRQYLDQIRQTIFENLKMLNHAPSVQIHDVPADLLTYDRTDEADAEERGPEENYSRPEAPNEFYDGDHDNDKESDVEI
# T2 sequence (Q9Y618 395-489 partner limits assumed): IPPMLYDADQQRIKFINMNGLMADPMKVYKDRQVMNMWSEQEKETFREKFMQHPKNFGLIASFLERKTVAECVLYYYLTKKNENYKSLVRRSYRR
structure (smiles),measurement,setting,value
O=C(CCCCCCC(=O)Nc1ccc(Cl)c(C(=O)Nc2ccc(NC(=O)c3cc(Cl)ccc3Cl)cc2)c1)NO [IHR-SAHA],HDAC Activity (Fluorescent counts),"HDAC1; HDAC1, WW01 0 Log nM",31058 Fluorescent counts and 32831 Fluorescent counts
same,HDAC Activity (Fluorescent counts),"HDAC1; HDAC1, WW01 0.5 Log nM",31900 Fluorescent counts and 30926 Fluorescent counts
same,HDAC Activity (Fluorescent counts),"HDAC1; HDAC1, WW01 1 Log nM",29505 Fluorescent counts and 28223 Fluorescent counts
same,HDAC Activity (Fluorescent counts),"HDAC1; HDAC1, WW01 1.5 Log nM",27089 Fluorescent counts and 26820 Fluorescent counts
same,HDAC Activity (Fluorescent counts),"HDAC1; HDAC1, WW01 2 Log nM",21883 Fluorescent counts and 21225 Fluorescent counts
same,HDAC Activity (Fluorescent counts),"HDAC1; HDAC1, WW01 2.5 Log nM",19997 Fluorescent counts and 14409 Fluorescent counts
same,HDAC Activity (Fluorescent counts),"HDAC1; HDAC1, WW01 3 Log nM",9008 Fluorescent counts and 8923 Fluorescent counts
same,HDAC Activity (Fluorescent counts),"HDAC1; HDAC1, WW01 3.5 Log nM",7360 Fluorescent counts and 7292 Fluorescent counts
same,HDAC Activity (Fluorescent counts),"HDAC1; HDAC1, WW01 4 Log nM",6195 Fluorescent counts and 6043 Fluorescent counts
same,HDAC Activity (Fluorescent counts),"HDAC1; HDAC1, WW01 -0.5 Log nM",31660 Fluorescent counts and 32681 Fluorescent counts
same,IC50,HDAC1; [2],285 nM
same,HDAC Activity (Fluorescent counts),"HDAC3/NCOR2; HDAC3/NCOR2, WW01 0 Log nM",24959 Fluorescent counts and 25571 Fluorescent counts
same,HDAC Activity (Fluorescent counts),"HDAC3/NCOR2; HDAC3/NCOR2, WW01 0.5 Log nM",24611 Fluorescent counts and 25823 Fluorescent counts
same,HDAC Activity (Fluorescent counts),"HDAC3/NCOR2; HDAC3/NCOR2, WW01 1 Log nM",23771 Fluorescent counts and 23666 Fluorescent counts
same,HDAC Activity (Fluorescent counts),"HDAC3/NCOR2; HDAC3/NCOR2, WW01 1.5 Log nM",20712 Fluorescent counts and 23164 Fluorescent counts
same,HDAC Activity (Fluorescent counts),"HDAC3/NCOR2; HDAC3/NCOR2, WW01 2 Log nM",15438 Fluorescent counts and 15968 Fluorescent counts
same,HDAC Activity (Fluorescent counts),"HDAC3/NCOR2; HDAC3/NCOR2, WW01 2.5 Log nM",10185 Fluorescent counts and 10772 Fluorescent counts
same,HDAC Activity (Fluorescent counts),"HDAC3/NCOR2; HDAC3/NCOR2, WW01 3 Log nM",6354 Fluorescent counts and 6385 Fluorescent counts
same,HDAC Activity (Fluorescent counts),"HDAC3/NCOR2; HDAC3/NCOR2, WW01 3.5 Log nM",4726 Fluorescent counts and 4835 Fluorescent counts
same,HDAC Activity (Fluorescent counts),"HDAC3/NCOR2; HDAC3/NCOR2, WW01 4 Log nM",3849 Fluorescent counts and 3671 Fluorescent counts
same,HDAC Activity (Fluorescent counts),"HDAC3/NCOR2; HDAC3/NCOR2, WW01 -0.5 Log nM",25301 Fluorescent counts and 26608 Fluorescent counts
same,IC50,HDAC3/NCOR2; [2],188 nM
same,HDAC Activity (Fluorescent counts),"HDAC7; HDAC7, WW01 0 Log nM",32252 Fluorescent counts and 31868 Fluorescent counts
same,HDAC Activity (Fluorescent counts),"HDAC7; HDAC7, WW01 0.5 Log nM",34296 Fluorescent counts and 32176 Fluorescent counts
same,HDAC Activity (Fluorescent counts),"HDAC7; HDAC7, WW01 1 Log nM",33398 Fluorescent counts and 31906 Fluorescent counts
same,HDAC Activity (Fluorescent counts),"HDAC7; HDAC7, WW01 1.5 Log nM",32702 Fluorescent counts and 31126 Fluorescent counts
same,HDAC Activity (Fluorescent counts),"HDAC7; HDAC7, WW01 2 Log nM",31277 Fluorescent counts and 30567 Fluorescent counts
same,HDAC Activity (Fluorescent counts),"HDAC7; HDAC7, WW01 2.5 Log nM",29706 Fluorescent counts and 30369 Fluorescent counts
same,HDAC Activity (Fluorescent counts),"HDAC7; HDAC7, WW01 3 Log nM",26605 Fluorescent counts and 26320 Fluorescent counts
same,HDAC Activity (Fluorescent counts),"HDAC7; HDAC7, WW01 3.5 Log nM",26104 Fluorescent counts and 24955 Fluorescent counts
same,HDAC Activity (Fluorescent counts),"HDAC7; HDAC7, WW01 4 Log nM",25321 Fluorescent counts and 25226 Fluorescent counts
same,HDAC Activity (Fluorescent counts),"HDAC7; HDAC7, WW01 -0.5 Log nM",33125 Fluorescent counts and 32259 Fluorescent counts
same,IC50,HDAC7; [2],> 10000 nM
same,IC50,[1],80 nM
